Measurements published in PMC8380212, “^18F-labeled tracers targeting fibroblast activation protein” (EJNMMI Radiopharmacy and Chemistry, 2021).

Key:
[1] = Determination of logD values (1-octanol / PBS); type: physicochemical; conditions: 1-octanol / phosphate buffered saline, pH 7.4; radiolabeled tracer detected by radioactivity in 1-octanol and phosphate buffered saline
Procedure: All experiments for the determination of logD values were performed in triplicate. For the determination by means of radioactivity, around 5 × 10^6 cpm in ca. 1 µL of radioactive stock solutions (water/acetonitrile 1:1) were added to 100 µL phosphate buffered saline (PBS, pH 7.4) and 100 µL of 1-octanol. The mixture was vortexed for 1 min, followed by 5 min of centrifugation for phase separation. A sample of each phase (10 or 50 µL) was measured for radioactivity per volume (Packard Cobra II Autogamma, GMI Inc., USA). In case of FAPI-72 and -73, the reference compounds [^19F]-FAPI-72 and -73 were dissolved in PBS at a concentration of 1 mg/mL. 50 µL of these solutions were each mixed with 50 µL 1-octanol and processed by vortexing and centrifugation as described above. 1 µL of each phase was analyzed by HPLC and the individual content of compound was determined by peak integration. The area under the peaks of the individual runs was used to calculate the log D value.
Fig. 1 Overview of the synthesized precursors discussed in this study. The corresponding log D values were determined by detection of the radiolabeled tracer in 1-octanol and phosphate buffered saline (pH 7). For values labeled with an asterix, the log D was calculated from the relative content of the non-radioactive reference standards in the 1-octanol and the water phase by HPLC analysis and peak integration TEXT PRINTED IN THE PICTURE: FAPI-42: LOG D: -1.63±0.06 | FAPI-52: LOG D: -1.90±0.02 | FAPI-72: LOG D: 1.20±0.01* | FAPI-73: LOG D: 1.13±0.05* | FAPI-74: LOG D: -2.42±0.03 | FAPI-75: LOG D: -3.36±0.12 | FAPI-76: LOG D: -2.86±0.07

Serum stability assay = type: in vitro ADME, human; conditions: 37 °C, 10 min to 4 h, radio-HPLC
Procedure: Five MBq of purified [^18F]AlF-FAPI-74 (20 GBq/µmol) were dried under reduced pressure and the residue incubated in 300 µL human serum (Sigma Aldrich Germany) at 37 °C. After different time intervals (10 min to 4 h) 20 µL samples were precipitated with 40 µL acetonitrile. The stability of the labeled peptide was monitored by radio-HPLC of the supernatant. A gradient of 0% to 30% acetonitrile in 10 min was used for enhanced separation performance.

wild type HT1080 cells = experiment: In vitro binding on wild type HT1080 cells (negative control); type: cell-based
Procedure: The binding properties of the FAPI derivatives were evaluated using the FAP‐transfected HT‐1080‐FAP and CD26 expressing HEK-CD26 cells. All cells were cultivated in Dulbecco's modified Eagle's medium (DMEM) containing 10% fetal calf serum (FCS) at 37 °C/5% carbon dioxide. Cells were seeded in 6-well plates and cultivated to a final confluence of approximately 80–90% (1.2 to 2.0 × 10^6 cells/well). After washing with FCS free medium, for each well ca. 3 kBq of the radiolabeled compound (10–20 GBq/µmol for [^18F]AlF-labeling) was added to the cells in FCS free medium. On completion of the individual incubation time, cells were washed with PBS and treated with 1.4 mL lysis buffer (0.3 m NaOH, 0.2% SDS) before being transferred to measuring tubes. Competition experiments were performed by co-incubation with the unlabeled precursor for 60 min. Radioactivity was determined in a Wizard Gamma Counter (Perkin Elmer), normalized to 10^6 cells and calculated as percentage of the applied dose (%AD). Each experiment was performed in triplicate.
Table 1 summarizes the uptake and EC50 values of the discussed ^18F-labeled FAPI derivatives using the FAP-transfected cell line HT-1080-FAP. Additionally, the lead candidates FAPI-74 to -76 were tested on HEK-CD26 as well as -74 and -75 on wild type HT1080 cells as negative control. […] For FAPI-74, a plateau was already reached after approximately 10 min with 27.2 ± 0.88%AD/10^6cells. […] The EC50 values were all in the low to sub-nanomolar range. Only a neglectable fraction of FAPIs 74–76 were detected on HEK-CD26 cells (0.18–0.24%) as well as on wildtype HT1080 in case of -74 and 75 (< 0.1%).

HT-1080-FAP xenografts = experiment: Organ distribution (biodistribution) study; type: in vivo, BALB/c nu/nu mice
Procedure: Eight-week-old BALB/c nu/nu mice (Charles River) were subcutaneously inoculated with 5 × 10^6 HT-1080-FAP cells. The subcutaneous xenografts were grown at the flanks of the mice. Xenografts were grown to a tumor diameter of 10–15 mm. Mice were anesthetized using isoflurane inhalation. 5–10 MBq of the [^18F]AlF-labeled compounds/ the respective tracer (FAPI-42/52/74/75/76; approx. 0.5 nmol; Am approximately 10–20 GBq/µmol) were injected intravenously for PET imaging. In vivo competition (blocking) experiments with ^68 Ga-FAPI-74 (9 MBq; 18.2 GBq/µmol) were performed by adding 30 nmol of unlabeled FAPI-74 to the injection solution. Images were acquired using a small-animal PET scanner (Inveon, Siemens). Within the first 60 min p.i., a dynamic scan was performed in list mode, followed by a static scan from 120–140 min post injection. Images were reconstructed iteratively using the 3D-OSEM + MAP method (Siemens) and were converted to standardized uptake value (SUV). For the dynamic analysis, 28 frames were reconstructed. Quantification was based on ROI analysis and expressed as SUV.
To reduce radiation exposure, the organ distribution study was performed with 1 MBq per animal. […] The radioactivity was measured using a γ-counter (Packard Cobra II Autogamma, GMI Inc., USA) and expressed as percentage of injected dose per gram of tissue (%ID/g). […]

logD [1]: -2.42 ± 0.03 | stability in human serum (Serum stability assay; listed as 18F-labeled FAPI-74): No degradation products were observed | tumor uptake (HT-1080-FAP xenografts; after 30 min, HT-1080-FAP bearing Balb/c nu/nu mice): 6.9 %ID/g | early tumor uptake (HT-1080-FAP xenografts; early, discussion): approximately 7 %ID/g
SMILES: N#C[C@@H]1CCCN1C(=O)CNC(=O)c1ccnc2ccc(OCCCN3CCN(C(=O)CN4CCN(CC(=O)O)CCN(CC(=O)O)CC4)CC3)cc12 [FAPI-74]
stability in human serum (Serum stability assay; listed as [^18F]AlF-FAPI-74): no degradation of the tracer or instability of the [^18F]AlF-NOTA complex | uptake WT (wild type HT1080 cells; wild type HT1080 control cells): 0.07 ± 0.03 %AD/10^6 cells | fraction detected on wildtype HT1080 (wild type HT1080 cells; wildtype HT1080, text): < 0.1%
